Experimental findings from BindingDB's records for PubMed 33316752 (University of Sharjah, 2021) are described below.

The test concerns the target RAF proto-oncogene serine/threonine-protein kinase (Homo sapiens, UniProt P04049). The test is described as follows: Inhibition of RAF1 (unknown origin) incubated for 40 mins by scintillation counting analysis.

Sequence of RAF proto-oncogene serine/threonine-protein kinase (P04049 whole entry): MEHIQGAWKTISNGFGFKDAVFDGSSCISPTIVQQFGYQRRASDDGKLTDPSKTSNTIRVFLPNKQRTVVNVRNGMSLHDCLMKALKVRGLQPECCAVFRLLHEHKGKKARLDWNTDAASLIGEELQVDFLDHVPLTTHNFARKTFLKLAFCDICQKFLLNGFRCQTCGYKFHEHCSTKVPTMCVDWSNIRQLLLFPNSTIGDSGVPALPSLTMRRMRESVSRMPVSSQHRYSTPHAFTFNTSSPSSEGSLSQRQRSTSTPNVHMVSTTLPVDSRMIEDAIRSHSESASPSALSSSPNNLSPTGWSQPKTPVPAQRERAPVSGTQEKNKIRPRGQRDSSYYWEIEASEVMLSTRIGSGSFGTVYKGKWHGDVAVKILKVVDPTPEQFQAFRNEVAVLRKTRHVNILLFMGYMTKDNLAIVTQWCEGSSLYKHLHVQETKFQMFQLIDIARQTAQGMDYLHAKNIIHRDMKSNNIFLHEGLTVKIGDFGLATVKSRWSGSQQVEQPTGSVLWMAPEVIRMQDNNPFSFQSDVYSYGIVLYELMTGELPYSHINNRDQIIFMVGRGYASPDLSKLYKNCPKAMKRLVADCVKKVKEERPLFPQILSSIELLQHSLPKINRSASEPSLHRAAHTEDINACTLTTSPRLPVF

Compound `O=C(NCCNc1nccc(-c2c(-c3cccc(O)c3)nc3sccn23)n1)c1ccccc1` showed an IC50 of 8.2 nM.
